# Data: patent US20260109712A1, “RIFAMYCINS FOR NONTUBERCULOUS MYCOBACTERIA” (priority 2022, published 2026)
# Key:
# [1] = tested on: M. abscessus ATCC 19977; assay: MIC assay in 96-well plate format, wild-type strain; format: cell-based, Mycobacterium abscessus; details: for MIC: M. abscessus ATCC 19977, 90% growth inhibition, read-out: WT Mab MIC; for MIC ratio: WT MIC/Δarr strain MIC; for fold loss of potency compared to 5a: MIC against M. abscessus; for MICWT: Table 10
# Method: (§1) MIC determination was carried out in 96-well plate format as previously described.^[13-14] 96-well plates were initially set up with 100 μL of 7H9 per well. For each compound, a ten-point two-fold dilution series starting at twice the desired highest concentration was dispensed onto the 96-well plates using a Tecan D300e Digital Dispenser, with the DMSO concentration normalized to 2%. M. abscessus culture grown to mid-log phase (OD600=0.4-0.6) was diluted to OD600=0.1 (1×10^7 CFU/mL). […] Untreated control wells are included on each plate that contain bacteria suspension and 1% DMSO. Plates were sealed with parafilm, stored in boxes with wet paper towels and incubated at 37° C. with shaking (110 RPM). Plates were incubated for 3 days. To determine growth, OD600 was measured using a Tecan Infinite M200 plate reader on Day 0 and Day 3. Two biological replicates were performed. Clarithromycin was included in each experiment as a positive control.
# (§2) For each well on the 96-well plate, bacterial growth was calculated by subtracting the Day 0 OD600 value from the Day 3 OD600 value. […] For compound-containing wells, percentage growth was calculated by dividing their growth values by the average drug-free bacterial growth for the compound series and multiplying by 100. For each compound series, we plotted percentage growth versus compound concentration.
# [2] = tested on: Δarr M. abscessus; assay: MIC assay, isogenic arr-deleted strain; format: cell-based, Mycobacterium abscessus; details: for Δarr Mab MIC: arr-deleted strain, 90% growth inhibition; for MICΔorr: Table 10
# Method: as §1, §2
Structure (SMILES),MIC [1],MIC ratio [1],Δarr Mab MIC [2],fold loss of potency compared to 5a [1],MICWT [1],MICΔorr [2]
"CO[C@H]1/C=C/O[C@@]2(C)Oc3c(C)c(O)c4c(c3C2=O)C2=NC3(CCN(CC(C)C)CC3)NC2=C(NC(=O)/C(C)=C/C=C/[C@H](C)[C@H](O)[C@@H](C)[C@@H](O)[C@@H](C)[C@H](OC(=O)c2ccccc2Cl)[C@@H]1C)C4=O [5f, 25-O-(2-chlorobenzoyl)-25-O-desacetyrifabutin]",43 nM,0.9,49 nM,,,
"COc1ccccc1C(=O)O[C@H]1[C@H](C)[C@H](O)[C@H](C)[C@@H](O)[C@@H](C)/C=C/C=C(\C)C(=O)NC2=C3NC4(CCN(CC(C)C)CC4)N=C3c3c(c(O)c(C)c4c3C(=O)[C@@](C)(O/C=C/[C@H](OC)[C@H]1C)O4)C2=O [5g, 25-O-(2-methoxybenzoyl)-25-O-desacetyrifabutin]",30 nM,1.0,30 nM,,,
"CO[C@H]1/C=C/O[C@@]2(C)Oc3c(C)c(O)c4c(c3C2=O)C2=NC3(CCN(CC(C)C)CC3)NC2=C(NC(=O)/C(C)=C/C=C/[C@H](C)[C@H](O)[C@@H](C)[C@@H](O)[C@@H](C)[C@H](OC(=O)c2ccccc2C(F)(F)F)[C@@H]1C)C4=O [5h, 25-O-(2-trifluoromethylbenzoyl)-25-O-desacetyrifabutin]",100 nM,0.8,120 nM,2 fold,,
"CO[C@H]1/C=C/O[C@@]2(C)Oc3c(C)c(O)c4c(c3C2=O)C2=NC3(CCN(CC(C)C)CC3)NC2=C(NC(=O)/C(C)=C/C=C/[C@H](C)[C@H](O)[C@@H](C)[C@@H](O)[C@@H](C)[C@H](OC(=O)c2ccccc2-c2ccccc2)[C@@H]1C)C4=O [5i, 25-O-(2-phenylbenzoyl)-25-O-desacetyrifabutin]",260 nM,1.8,140 nM,5 fold,,
CCC(CC)C(=O)O[C@H]1[C@H](C)[C@H](O)[C@H](C)[C@@H](O)[C@@H](C)/C=C/C=C(\C)C(=O)NC2=C3NC4(CCN(CC(C)C)CC4)N=C3c3c(c(O)c(C)c4c3C(=O)[C@@](C)(O/C=C/[C@H](OC)[C@H]1C)O4)C2=O [5l],1150 nM,23.5,49 nM,,,
"CO[C@H]1/C=C/O[C@@]2(C)Oc3c(C)c(O)c4c(c3C2=O)C2=NC3(CCN(CC(C)C)CC3)NC2=C(NC(=O)/C(C)=C/C=C/[C@H](C)[C@H](O)[C@@H](C)[C@@H](O)[C@@H](C)[C@H](OC(=O)c2nccs2)[C@@H]1C)C4=O [5o, 25-O-(2-thiazolecarbonyl)-25-O-desacetyrifabutin]",17 nM,1.0,17 nM,,,
CO[C@H]1/C=C/O[C@@]2(C)Oc3c(C)c(O)c4c(c3C2=O)C2=NC3(CCN(CC(C)C)CC3)NC2=C(NC(=O)/C(C)=C/C=C/[C@H](C)[C@H](O)[C@@H](C)[C@@H](O)[C@@H](C)[C@H](OC(=O)c2cccc(C)c2)[C@@H]1C)C4=O [UMN8],,,,,0.075 µM,0.065 µM
CO[C@H]1/C=C/O[C@@]2(C)Oc3c(C)c(O)c4c(c3C2=O)C2=NC3(CCN(CC(C)C)CC3)NC2=C(NC(=O)/C(C)=C/C=C/[C@H](C)[C@H](O)[C@@H](C)[C@@H](O)[C@@H](C)[C@H](OC(=O)c2ccc(C)cc2)[C@@H]1C)C4=O [UMN9],,,,,0.2 µM,0.11 µM
CCC(CC)C(=O)O[C@H]1[C@H](C)[C@H](O)[C@H](C)[C@@H](O)[C@@H](C)/C=C/C=C(\C)C(=O)NC2=C3NC4(CCN(CC(C)C)CC4)N=C3c3c(c(O)c(C)c4c3C(=O)[C@@](C)(O/C=C/[C@H](OC)[C@H]1C)O4)C2=O [UMN17],,,,,1.15 µM,0.049 µM
CCC(C)C(=O)O[C@H]1[C@H](C)[C@H](O)[C@H](C)[C@@H](O)[C@@H](C)/C=C/C=C(\C)C(=O)NC2=C3NC4(CCN(CC(C)C)CC4)N=C3c3c(c(O)c(C)c4c3C(=O)[C@@](C)(O/C=C/[C@H](OC)[C@H]1C)O4)C2=O (stereo partly shown) [UMN21],,,,,1.1 µM,0.028 µM
CO[C@H]1/C=C/O[C@@]2(C)Oc3c(C)c(O)c4c(c3C2=O)C2=NC3(CCN(CC(C)C)CC3)NC2=C(NC(=O)/C(C)=C/C=C/[C@H](C)[C@H](O)[C@@H](C)[C@@H](O)[C@@H](C)[C@H](OC(=O)c2ccccc2-c2ccccc2)[C@@H]1C)C4=O [UMN25],,,,,0.26 µM,0.14 µM
CO[C@H]1/C=C/O[C@@]2(C)Oc3c(C)c(O)c4c(c3C2=O)C2=NC3(CCN(CC(C)C)CC3)NC2=C(NC(=O)/C(C)=C/C=C/[C@H](C)[C@H](O)[C@@H](C)[C@@H](O)[C@@H](C)[C@H](OC(=O)c2ccccc2C(F)(F)F)[C@@H]1C)C4=O [UMN30],,,,,0.1 µM,0.12 µM
CO[C@H]1/C=C/O[C@@]2(C)Oc3c(C)c(O)c4c(c3C2=O)C2=NC3(CCN(CC(C)C)CC3)NC2=C(NC(=O)/C(C)=C/C=C/[C@H](C)[C@H](O)[C@@H](C)[C@@H](O)[C@@H](C)[C@H](OC(=O)Nc2cccc(-c3ccccc3)c2)[C@@H]1C)C4=O [UMN31],,,,,0.27 µM,0.43 µM
CO[C@H]1/C=C/O[C@@]2(C)Oc3c(C)c(O)c4c(c3C2=O)C2=NC3(CCN(CC(C)C)CC3)NC2=C(NC(=O)/C(C)=C/C=C/[C@H](C)[C@H](O)[C@@H](C)[C@@H](O)[C@@H](C)[C@H](OC(=O)Nc2ccc(-c3ccccc3)cc2)[C@@H]1C)C4=O [UMN38],,,,,0.2 µM,0.43 µM
CO[C@H]1/C=C/O[C@@]2(C)Oc3c(C)c(O)c4c(c3C2=O)C2=NC3(CCN(CC(C)C)CC3)NC2=C(NC(=O)/C(C)=C/C=C/[C@H](C)[C@H](O)[C@@H](C)[C@@H](O)[C@@H](C)[C@H](OC(=O)NCc2cc(-c3cccc(-c5ccccc5)c3)no2)[C@@H]1C)C4=O [UMN41],,,,,0.25 µM,0.34 µM
CO[C@H]1/C=C/O[C@@]2(C)Oc3c(C)c(O)c4c(c3C2=O)C2=NC3(CCN(CC(C)C)CC3)NC2=C(NC(=O)/C(C)=C/C=C/[C@H](C)[C@H](O)[C@@H](C)[C@@H](O)[C@@H](C)[C@H](OC(=O)N2CCN(CC(F)(F)F)CC2)[C@@H]1C)C4=O [UMN54],,,,,0.13 µM,0.029 µM
CO[C@H]1/C=C/O[C@@]2(C)Oc3c(C)c(O)c4c(c3C2=O)C2=NC3(CCN(CC(C)C)CC3)NC2=C(NC(=O)/C(C)=C/C=C/[C@H](C)[C@H](O)[C@@H](C)[C@@H](O)[C@@H](C)[C@H](OC(=O)N2CCN(CCO)CC2)[C@@H]1C)C4=O [UMN55],,,,,0.28 µM,0.13 µM
CO[C@H]1/C=C/O[C@@]2(C)Oc3c(C)c(O)c4c(c3C2=O)C2=NC3(CCN(CC(C)C)CC3)NC2=C(NC(=O)/C(C)=C/C=C/[C@H](C)[C@H](O)[C@@H](C)[C@@H](O)[C@@H](C)[C@H](OC(=O)Nc2nc(-c3ccccc3)cs2)[C@@H]1C)C4=O [UMN57],,,,,0.15 µM,0.25 µM
CO[C@H]1/C=C/O[C@@]2(C)Oc3c(C)c(O)c4c(c3C2=O)C2=NC3(CCN(CC(C)C)CC3)NC2=C(NC(=O)/C(C)=C/C=C/[C@H](C)[C@H](O)[C@@H](C)[C@@H](O)[C@@H](C)[C@H](OC(=O)N2Cc3ccccc3C2)[C@@H]1C)C4=O [UMN65],,,,,0.11 µM,0.052 µM
CO[C@H]1/C=C/O[C@@]2(C)Oc3c(C)c(O)c4c(c3C2=O)C2=NC3(CCN(CC(C)C)CC3)NC2=C(NC(=O)/C(C)=C/C=C/[C@H](C)[C@H](O)[C@@H](C)[C@@H](O)[C@@H](C)[C@H](OC(=O)N2CCN(C(C)C)CC2)[C@@H]1C)C4=O [UMN66],,,,,0.17 µM,0.056 µM
CO[C@H]1/C=C/O[C@@]2(C)Oc3c(C)c(O)c4c(c3C2=O)C2=NC3(CCN(CC(C)C)CC3)NC2=C(NC(=O)/C(C)=C/C=C/[C@H](C)[C@H](O)[C@@H](C)[C@@H](O)[C@@H](C)[C@H](OC(=O)N2CCC(N(C)C)CC2)[C@@H]1C)C4=O [UMN74],,,,,0.12 µM,0.13 µM
CO[C@H]1/C=C/O[C@@]2(C)Oc3c(C)c(O)c4c(c3C2=O)C2=NC3(CCN(CC(C)C)CC3)NC2=C(NC(=O)/C(C)=C/C=C/[C@H](C)[C@H](O)[C@@H](C)[C@@H](O)[C@@H](C)[C@H](OC(=O)N2CCC(C)(C)C2)[C@@H]1C)C4=O [UMN75],,,,,0.13 µM,0.035 µM
CO[C@H]1/C=C/O[C@@]2(C)Oc3c(C)c(O)c4c(c3C2=O)C2=NC3(CCN(CC(C)C)CC3)NC2=C(NC(=O)/C(C)=C/C=C/[C@H](C)[C@H](O)[C@@H](C)[C@@H](O)[C@@H](C)[C@H](OC(=O)N2CCOCC2)[C@@H]1C)C4=O [UMN78],,,,,0.16 µM,0.040 µM
CO[C@H]1/C=C/O[C@@]2(C)Oc3c(C)c(O)c4c(c3C2=O)C2=NC3(CCN(CC(C)C)CC3)NC2=C(NC(=O)/C(C)=C/C=C/[C@H](C)[C@H](O)[C@@H](C)[C@@H](O)[C@@H](C)[C@H](OC(=O)N2CCCC2)[C@@H]1C)C4=O [UMN79],,,,,0.18 µM,0.030 µM
COC(=O)Cn1cc(CNC(=O)O[C@H]2[C@H](C)[C@H](O)[C@H](C)[C@@H](O)[C@@H](C)/C=C/C=C(\C)C(=O)NC3=C4NC5(CCN(CC(C)C)CC5)N=C4c4c(c(O)c(C)c5c4C(=O)[C@@](C)(O/C=C/[C@H](OC)[C@H]2C)O5)C3=O)nn1 [UMN84],,,,,0.13 µM,0.15 µM
